Consider 8 compounds from patent publication US8273754B2, “Substituted 1H-pyrazolo[3,4-D]pyrimidine-6-amine compounds” (ArQule, Inc., priority 2008, dated 2012).

SMILES strings stand for the structures. Read-outs that look alike come from different tables or passages of the source. Where only a bound is given, the exact number is not on record here.

One experiment deals with cancer cells. In words: MTS cell growth inhibition assay (72 hours). Type of experiment: cell-based. A digest of the protocol:
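Growth inhibition read as formazan absorbance at 492 nm after 4 h MTS/PMS, following 72 h compound exposure at 37 °C in 1% FBS DMEM (cells pre-seeded 18 h). IC50 = 50% absorbance reduction; inhibition graded in bands.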

In the next experiment the target is T1, FGFR2 (N549H) (Homo sapiens, UniProt P21802, N549H).
T1 construct: purchased Millipore 14-742
T1 sequence (P21802 22-821 N549H): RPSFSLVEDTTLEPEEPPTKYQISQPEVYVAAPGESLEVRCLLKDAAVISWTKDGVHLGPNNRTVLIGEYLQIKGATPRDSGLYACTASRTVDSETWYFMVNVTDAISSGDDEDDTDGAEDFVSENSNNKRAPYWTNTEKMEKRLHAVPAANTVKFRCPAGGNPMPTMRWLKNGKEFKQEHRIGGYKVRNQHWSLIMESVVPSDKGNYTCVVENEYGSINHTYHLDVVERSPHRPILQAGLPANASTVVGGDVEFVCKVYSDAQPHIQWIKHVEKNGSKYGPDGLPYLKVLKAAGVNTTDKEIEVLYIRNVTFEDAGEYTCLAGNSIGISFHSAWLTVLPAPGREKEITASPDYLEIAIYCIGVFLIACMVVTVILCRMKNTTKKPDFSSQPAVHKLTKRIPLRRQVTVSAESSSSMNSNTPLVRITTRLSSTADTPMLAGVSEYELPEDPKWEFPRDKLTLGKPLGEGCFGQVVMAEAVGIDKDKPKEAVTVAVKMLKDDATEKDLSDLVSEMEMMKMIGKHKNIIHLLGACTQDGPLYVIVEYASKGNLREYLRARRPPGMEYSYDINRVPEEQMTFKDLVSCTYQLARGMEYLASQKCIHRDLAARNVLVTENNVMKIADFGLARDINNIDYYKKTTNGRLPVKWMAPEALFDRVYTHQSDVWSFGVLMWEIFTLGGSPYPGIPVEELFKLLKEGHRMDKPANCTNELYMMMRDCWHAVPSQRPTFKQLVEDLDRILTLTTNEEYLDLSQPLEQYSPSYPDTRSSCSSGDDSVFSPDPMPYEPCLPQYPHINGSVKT
In words: fluorescent ELISA assay for inhibitors of FGFR2 kinase. It is filed as biochemical. The settings on record: Pyk2 peptide substrate, 60 minutes. A digest of the protocol:
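FGFR2 enzyme (0.5 μM) phosphorylates biotinylated Pyk2 peptide (37 μM) with 12.5 μM ATP added, in Tris-HCl buffer containing 10 mM MgCl2, 2 mM DTT and 75 μM ATP, for 60 min. Peptide captured on streptavidin 30 min at room temperature; phosphotyrosine detected by antibody, alkaline phosphatase secondary and Attophos fluorescence (ex 400/em 595 nm). Inhibition seen as signal decrease.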

Where [1] appears, read: Homo sapiens, DLD-1, 72 h, DLD-1 cells, read-out: DLD-1 MTS 72 hr at 10 μM.
The mark [2] stands for this setting: Homo sapiens, KATO III, 72 h, KATO III cells, read-out: KATO III MTS 72 hr at 10 μM.
Where [3] appears, read: Homo sapiens, MDA-MB-231, 72 h, MDA-MB-231 cells, read-out: MDA-MB-231 MTS 72 hr at 10 μM.
Where [4] appears, read: Homo sapiens, NCI-H1299, 72 h, NCI-H1299 cells, read-out: NCI-H1299 MTS 72 hr at 10 μM.
Where [5] appears, read: PaCa-2, 72 h, PACA-2 cells, read-out: PACA-2 MTS 72 hr at 10 μM.

Take `CC(C)c1ccc(S(=O)(=O)N2CC(Nc3nc(N)nc4[nH]ncc34)Cc3ccccc32)cc1` (stereo not drawn) [Compound 56, N4-(1-(4-isopropylphenylsulfonyl)-1,2,3,4-tetrahydroquinolin-3-yl)-1H-pyrazolo[3,4-d]pyrimidine-4,6-diamine]: the inhibition at 10 µM in the experiment with cancer cells (setting [1]), in the experiment on cancer cells (setting [2]), with cancer cells (setting [3]), in the experiment with cancer cells (setting [4]) and in the experiment with cancer cells (setting [5]) was < 50% each time. Moreover, at FGFR2 (N549H), the concentration for half-maximal inhibition (IC50) was > 30 µM.

Regarding `Nc1nc(NC2Cc3ccccc3N(S(=O)(=O)c3c(F)cccc3F)C2)c2cn[nH]c2n1` (stereo not drawn) [Compound 58, N4-(1-(2,6-difluorophenylsulfonyl)-1,2,3,4-tetrahydroquinolin-3-yl)-1H-pyrazolo[3,4-d]pyrimidine-4,6-diamine], the inhibition at 10 µM with cancer cells (setting [1]), in the experiment with cancer cells (setting [2]), with cancer cells (setting [3]), with cancer cells (setting [4]) and with cancer cells (setting [5]) was < 50% throughout. Also, at FGFR2 (N549H), the midpoint of inhibition, the IC50, lay at 13 µM.

For `COc1ccc(OC)c(CN2CC(Nc3nc(N)nc4[nH]ncc34)Cc3ccccc32)c1` (stereo not drawn) [Compound 121, N4-(1-(2,5-dimethoxybenzyl)-1,2,3,4-tetrahydroquinolin-3-yl)-1H-pyrazolo[3,4-d]pyrimidine-4,6-diamine], the inhibition at 10 µM was < 50% in the experiment with cancer cells (setting [1]); > 79% in the experiment on cancer cells (setting [2]); < 50% in the experiment on cancer cells (setting [3]); < 50% in the experiment on cancer cells (setting [4]); < 50% in the experiment with cancer cells (setting [5]). The 50% inhibitory concentration (IC50) at FGFR2 (N549H) is > 30 µM.

On to `Cc1cccc(CN2CC(Nc3nc(N)nc4[nH]ncc34)Cc3ccccc32)c1` (stereo not drawn) [Compound 122, N4-[1-(3-methylbenzyl)-1,2,3,4-tetrahydroquinolin-3-yl]-1H-pyrazolo[3,4-d]pyrimidine-4,6-diamine], for which the inhibition at 10 µM with cancer cells (setting [1]) was < 50%; in the experiment on cancer cells (setting [2]), 50 to 79%; with cancer cells (setting [3]) it was < 50%; in the experiment on cancer cells (setting [4]), < 50%; in the experiment with cancer cells (setting [5]), 50 to 79%. This compound also came in with an IC50 on FGFR2 (N549H) of 1.67 µM.

As to `COc1ccc(CN2CC(Nc3nc(N)nc4[nH]ncc34)Cc3ccccc32)cc1OC` (stereo not drawn) [Compound 123, N4-[1-(3,4-dimethoxybenzyl)-1,2,3,4-tetrahydroquinolin-3-yl]-1H-pyrazolo[3,4-d]pyrimidine-4,6-diamine], the inhibition at 10 µM in the experiment with cancer cells (setting [1]), in the experiment with cancer cells (setting [2]), in the experiment with cancer cells (setting [3]), in the experiment with cancer cells (setting [4]) and in the experiment with cancer cells (setting [5]) was < 50% throughout. The half-maximal inhibitory concentration (IC50) at FGFR2 (N549H) was > 30 µM.

Turning to `Nc1nc(NC2Cc3ccccc3N(Cc3ccccc3)C2)c2cn[nH]c2n1` (stereo not drawn) [Compound 125, N4-(1-benzyl-1,2,3,4-tetrahydroquinolin-3-yl)-1H-pyrazolo[3,4-d]pyrimidine-4,6-diamine], the inhibition at 10 µM in the experiment on cancer cells (setting [1]), in the experiment with cancer cells (setting [2]), with cancer cells (setting [3]), in the experiment with cancer cells (setting [4]) and with cancer cells (setting [5]) was < 50% in each case. This compound also registered an IC50 against FGFR2 (N549H) of 17.2 µM.

In the case of `Nc1nc(NC2Cc3ccccc3N(Cc3cccc(Cl)c3)C2)c2cn[nH]c2n1` (stereo not drawn) [Compound 126, N4-[1-(3-chlorobenzyl)-1,2,3,4-tetrahydroquinolin-3-yl]-1H-pyrazolo[3,4-d]pyrimidine-4,6-diamine], the inhibition at 10 µM is < 50% with cancer cells (setting [1]); 50 to 79% in the experiment with cancer cells (setting [2]); < 50% in the experiment with cancer cells (setting [3]); < 50% in the experiment with cancer cells (setting [4]); 50 to 79% with cancer cells (setting [5]). Moreover, on FGFR2 (N549H), the IC50 was found to be 1.19 µM.

As to `COc1cccc(CN2CC(Nc3nc(N)nc4[nH]ncc34)Cc3ccccc32)c1` (stereo not drawn) [Compound 127, N4-[1-(3-methoxybenzyl)-1,2,3,4-tetrahydroquinolin-3-yl]-1H-pyrazolo[3,4-d]pyrimidine-4,6-diamine], the inhibition at 10 µM in the experiment on cancer cells (setting [1]) was < 50%; in the experiment on cancer cells (setting [2]), 50 to 79%; in the experiment on cancer cells (setting [3]), < 50%; in the experiment with cancer cells (setting [4]) it was < 50%; in the experiment on cancer cells (setting [5]), 50 to 79%. This compound came in with an IC50 against FGFR2 (N549H) of 11 µM.

For orientation: IC50 means the concentration needed to halve the response being measured. Low readings indicate higher potency, high ones lower potency.
